Data from paper PMC10470200 (The Journal of Biological Chemistry, 2023).

What was measured:
[1] = target: T1, cytochrome P450 3A4 (CYP3A4) (Homo sapiens, UniProt P08684); assay: equilibrium spectral titration, Hill fit (S50; nH […]); format: binding
T1 construct: Δ3-22 CYP3A4

[2] = target: T2, cytochrome P450 3A4 (CYP3A4) (Homo sapiens, UniProt P08684, F219A); assay: as above; format: binding
T2 construct: Δ3-22 CYP3A4
T2 sequence (P08684 23-503 F219A): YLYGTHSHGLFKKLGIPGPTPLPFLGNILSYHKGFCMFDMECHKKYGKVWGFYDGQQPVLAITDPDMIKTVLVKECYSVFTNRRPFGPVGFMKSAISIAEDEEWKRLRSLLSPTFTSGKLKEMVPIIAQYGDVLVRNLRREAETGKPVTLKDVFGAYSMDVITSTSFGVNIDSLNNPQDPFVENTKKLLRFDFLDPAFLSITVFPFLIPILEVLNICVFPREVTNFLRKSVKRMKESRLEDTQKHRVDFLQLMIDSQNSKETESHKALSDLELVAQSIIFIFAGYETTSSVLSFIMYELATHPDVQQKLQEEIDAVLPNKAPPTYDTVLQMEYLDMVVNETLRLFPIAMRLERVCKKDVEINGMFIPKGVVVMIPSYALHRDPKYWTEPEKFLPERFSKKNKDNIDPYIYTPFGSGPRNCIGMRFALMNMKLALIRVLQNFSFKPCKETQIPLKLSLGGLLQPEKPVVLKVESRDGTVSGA

T1 sequence (P08684 23-503): as the sequence (P08684 23-503 F219A) above, with A197F counted along it

For `CC(=O)[C@H]1CC[C@H]2[C@@H]3CCC4=CC(=O)CC[C@]4(C)[C@H]3CC[C@]12C` [PRG, progesterone], the Kd [1] was 103 ± 3 µM and the Kd [2] was 158 ± 9 µM.
